Data: patent publication US11458138B2 (Novartis AG, priority 2017, dated 2022)
pEC50, pIC50: −log10 of the molar value.

Legend:
LATS1 = LATS1 (Homo sapiens (Human), UniProt O95835); assay: LATS1 biochemical assay (Table 1A, Compound Examples 1-290; method in the earlier part)
[1] = tested on: YAP nuclear translocation in HaCaT cells; assay: YAP Translocation Assay (HaCaT Cells); format: cell-based, human; conditions: Homo sapiens, 24 hours
Protocol: HaCaT cells were suspended at 0.4×10^6 cells/ml in DMEM+10% FBS with penicillin-streptomycin-glutamine. 50 μl of cells were dispensed into 384-well clear bottom assay plates (20,000 cells/well), and incubated overnight at 37° C. 100 nL test compound was transferred into the assay wells containing HaCaT cells using ECHO (Labcyte). After 24 hours incubation at 37° C., 7 μL of 32% PFA was dispensed into each well and incubated for 45 minutes at room temperature. Plates were washed 3 times with PBS, leaving 20 μL of PBS per well, then treated with 0.1% Triton and 1.5% BSA in PBS for 45 minutes at room temperature. Plates were washed for 5 times with PBS, leaving 20 μL of PBS per well. […] Plates were further washed 3 time with PBS, sealed and imaged on the high-content Opera imaging system (PerkinElmer).

Sequence of LATS1 (O95835 whole entry, looked up): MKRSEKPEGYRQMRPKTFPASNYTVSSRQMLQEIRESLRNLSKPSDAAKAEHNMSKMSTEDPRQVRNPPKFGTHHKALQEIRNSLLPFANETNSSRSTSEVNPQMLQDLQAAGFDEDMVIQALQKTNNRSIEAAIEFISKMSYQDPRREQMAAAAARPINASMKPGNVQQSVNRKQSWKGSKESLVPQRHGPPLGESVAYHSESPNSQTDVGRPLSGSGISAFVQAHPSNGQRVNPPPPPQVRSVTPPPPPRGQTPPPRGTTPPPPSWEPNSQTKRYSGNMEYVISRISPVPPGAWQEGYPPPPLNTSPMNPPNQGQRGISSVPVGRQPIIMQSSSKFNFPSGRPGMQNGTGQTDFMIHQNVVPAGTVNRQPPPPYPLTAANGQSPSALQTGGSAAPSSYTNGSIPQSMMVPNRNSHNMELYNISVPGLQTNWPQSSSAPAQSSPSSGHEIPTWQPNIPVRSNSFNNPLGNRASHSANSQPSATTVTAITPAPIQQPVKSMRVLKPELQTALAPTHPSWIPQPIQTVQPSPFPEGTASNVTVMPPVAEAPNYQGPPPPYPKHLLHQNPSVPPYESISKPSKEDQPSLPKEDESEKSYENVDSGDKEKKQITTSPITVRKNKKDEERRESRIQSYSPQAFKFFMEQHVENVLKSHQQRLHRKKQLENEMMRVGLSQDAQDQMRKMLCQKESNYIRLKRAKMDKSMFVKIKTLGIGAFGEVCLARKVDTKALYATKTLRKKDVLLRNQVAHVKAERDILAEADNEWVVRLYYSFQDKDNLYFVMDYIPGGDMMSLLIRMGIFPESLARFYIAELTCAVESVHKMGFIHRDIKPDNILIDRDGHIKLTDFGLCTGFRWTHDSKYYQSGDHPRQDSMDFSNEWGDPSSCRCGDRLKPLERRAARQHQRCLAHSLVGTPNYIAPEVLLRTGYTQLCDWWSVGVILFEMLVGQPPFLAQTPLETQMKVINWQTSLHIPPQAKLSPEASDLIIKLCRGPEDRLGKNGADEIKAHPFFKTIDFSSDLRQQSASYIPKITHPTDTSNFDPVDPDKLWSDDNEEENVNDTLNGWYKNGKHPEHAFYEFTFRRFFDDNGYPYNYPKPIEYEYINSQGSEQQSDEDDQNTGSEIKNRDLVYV
Sequence of LATS1 (Q7L9L4 whole entry partner, looked up): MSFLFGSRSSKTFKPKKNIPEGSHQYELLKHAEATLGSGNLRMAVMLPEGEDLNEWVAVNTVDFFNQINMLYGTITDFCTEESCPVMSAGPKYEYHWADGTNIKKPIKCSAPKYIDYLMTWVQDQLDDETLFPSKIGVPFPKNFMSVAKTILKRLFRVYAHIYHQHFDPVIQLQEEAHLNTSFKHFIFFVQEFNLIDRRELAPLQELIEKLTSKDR

SMILES: CC1(C)CC(O)CCN1c1cc(-c2ccncc2)nc2cnccc12 (stereo not drawn) [Example 262, 2,2-dimethyl-1-[2-(pyridin-4-yl)-1,7-naphthyridin-4-yl]piperidin-4-ol]
- pIC50 (LATS1): 8.52
- pEC50 [1]: 6.51

SMILES: OCCC(Nc1nc(-c2ccncc2)nc2cnccc12)C(F)(F)F (stereo not drawn) [Example 27, 4,4,4-trifluoro-3-{[2-(pyridin-4-yl)pyrido[3,4-d]pyrimidin-4-yl]amino}butan-1-ol]
- pIC50 (LATS1): 7.46
- pEC50 [1]: < 4.84

SMILES: CC(Nc1nc(-c2ccnn2C)nc2cnccc12)c1ccncc1 (stereo not drawn) [Example 193, 2-(1-methyl-1H-pyrazol-5-yl)-N-[1-(pyridin-4-yl)ethyl]pyrido[3,4-d]pyrimidin-4-amine]
- pIC50 (LATS1): < 5.00

SMILES: O=C(O)CCCCCNc1nc(-c2ccncc2)nc2cnccc12 [Example 94, 6-{[2-(pyridin-4-yl)pyrido[3,4-d]pyrimidin-4-yl]amino}hexanoic acid]
- pIC50 (LATS1): 5.94
- pEC50 [1]: < 4.70

SMILES: Cc1ccc(Nc2nc(-c3ccncc3)nc3cnccc23)cc1 [Example 90, N-(4-methylphenyl)-2-(pyridin-4-yl)pyrido[3,4-d]pyrimidin-4-amine]
- pIC50 (LATS1): 6.90
- pEC50 [1]: < 4.70

SMILES: Cn1nccc1-c1nc(NC2(C(F)(F)F)CC2)c2ccncc2n1 [Example 189, 2-(1-methyl-1H-pyrazol-5-yl)-N-[1-(trifluoromethyl)cyclopropyl]pyrido[3,4-d]pyrimidin-4-amine]
- pIC50 (LATS1): 7.08
- pEC50 [1]: < 5.00

SMILES: CCCNc1nc(-c2ccncc2C)nc2cnccc12 [Example 164, 2-(3-methylpyridin-4-yl)-N-propylpyrido[3,4-d]pyrimidin-4-amine]
- pIC50 (LATS1): 6.80
- pEC50 [1]: < 4.70

SMILES: CC(C)(CCO)Nc1cc(-c2ccncc2)nc2cnccc12 [Example 260, 3-methyl-3-{[2-(pyridin-4-yl)-1,7-naphthyridin-4-yl]amino}butan-1-ol]
- pIC50 (LATS1): 6.34
- pEC50 [1]: < 4.70

SMILES: CC(C)N(C)c1cc(-c2ccncc2F)nc2cnccc12 [Example 277, 2-(3-fluoropyridin-4-yl)-N-methyl-N-(propan-2-yl)-1,7-naphthyridin-4-amine]
- pIC50 (LATS1): 7.19
- pEC50 [1]: < 4.70

SMILES: CC(C)(O)COCC(C)(C)Nc1nc(-c2ccncc2Cl)nc2cnccc12 [Example 127, 1-(2-{[2-(3-chloropyridin-4-yl)pyrido[3,4-d]pyrimidin-4-yl]amino}-2-methylpropoxy)-2-methylpropan-2-ol]
- pIC50 (LATS1): 7.26
- pEC50 [1]: < 4.70

SMILES: Cc1n[nH]cc1-c1nc(NC(C)c2ccncc2)c2ccncc2n1 (stereo not drawn) [Example 190, 2-(3-methyl-1H-pyrazol-4-yl)-N-[1-(pyridin-4-yl)ethyl]pyrido[3,4-d]pyrimidin-4-amine]
- pIC50 (LATS1): 7.00
- pEC50 [1]: < 4.70

SMILES: CC(C)(Nc1nc(-c2ccncc2)nc2cnccc12)C12CC3CC(CC(C3)C1)C2 [Example 42, N-[2-(adamantan-1-yl)propan-2-yl]-2-(pyridin-4-yl)pyrido[3,4-d]pyrimidin-4-amine]
- pIC50 (LATS1): 6.15
- pEC50 [1]: 4.94

SMILES: CN[C@@H]1CCCC[C@H]1N(C)c1nc(-c2ccncc2)nc2cnccc12 [Example 53, (1R,2R)-1-N,2-N-dimethyl-1-N-[2-(pyridin-4-yl)pyrido[3,4-d]pyrimidin-4-yl]cyclohexane-1,2-diamine]
- pIC50 (LATS1): 7.40
- pEC50 [1]: < 4.70

SMILES: CC(C)(O)COCC(C)(C)Nc1nc(-c2c[nH]nc2C(F)(F)F)nc2cnccc12 [Example 121, 2-methyl-1-[2-methyl-2-({2-[3-(trifluoromethyl)-1H-pyrazol-4-yl]pyrido[3,4-d]pyrimidin-4-yl}amino)propoxy]propan-2-ol]
- pIC50 (LATS1): 7.85
- pEC50 [1]: 5.09

SMILES: CC(C)N(C)c1cc(-c2ccncc2)nc2cnccc12 [Example 259, N-methyl-N-(propan-2-yl)-2-(pyridin-4-yl)-1,7-naphthyridin-4-amine]
- pIC50 (LATS1): 7.21
- pEC50 [1]: 4.76

SMILES: C[C@@H](Nc1nc(-c2cn[nH]c2)nc2cnccc12)c1ccccc1 [Example 167, N-[(1R)-1-phenylethyl]-2-(1H-pyrazol-4-yl)pyrido[3,4-d]pyrimidin-4-amine]
- pIC50 (LATS1): 6.84
- pEC50 [1]: < 4.70

SMILES: CC(C)(C)Nc1nc(-c2cc(Cl)ncc2C(F)(F)F)nc2cnccc12 [Example 131, N-tert-butyl-2-[2-chloro-5-(trifluoromethyl)pyridin-4-yl]pyrido[3,4-d]pyrimidin-4-amine]
- pIC50 (LATS1): < 6.08
- pEC50 [1]: < 4.70

SMILES: C[C@](Nc1nc(-c2ccncc2)nc2cnccc12)(C(=O)O)C(F)(F)F [Example 29, (2S)-3,3,3-trifluoro-2-methyl-2-{[2-(pyridin-4-yl)pyrido[3,4-d]pyrimidin-4-yl]amino}propanoic acid]
- pIC50 (LATS1): 7.44
- pEC50 [1]: < 4.70

SMILES: Fc1cnccc1-c1cc(N2CCOCC2)c2ccncc2n1 [Example 279, 2-(3-fluoropyridin-4-yl)-4-(morpholin-4-yl)-1,7-naphthyridine]
- pIC50 (LATS1): < 5.60
- pEC50 [1]: < 4.70

SMILES: CC(C)(COCC(=O)O)Nc1nc(-c2ccncc2)nc2cnccc12 [Example 25, 2-(2-methyl-2-{[2-(pyridin-4-yl)pyrido[3,4-d]pyrimidin-4-yl]amino}propoxy)acetic acid]
- pIC50 (LATS1): 7.52
- pEC50 [1]: < 4.70

SMILES: CC1(Nc2nc(-c3cnc[nH]3)nc3cnccc23)CC1 [Example 177, 2-(1H-imidazol-5-yl)-N-(1-methylcyclopropyl)pyrido[3,4-d]pyrimidin-4-amine]
- pIC50 (LATS1): < 5.60
- pEC50 [1]: < 4.70

SMILES: COC(=O)[C@H]1C[C@@H](Nc2nc(-c3ccncc3)nc3cnccc23)C1 [Example 54, methyl (1s,3s)-3-{[2-(pyridin-4-yl)pyrido[3,4-d]pyrimidin-4-yl]amino}cyclobutane-1-carboxylate]
- pIC50 (LATS1): 7.11
- pEC50 [1]: < 4.70

SMILES: Cc1cnccc1-c1nc(N(C)C(C)C)c2ccncc2n1 [Example 128, N-methyl-2-(3-methylpyridin-4-yl)-N-(propan-2-yl)pyrido[3,4-d]pyrimidin-4-amine]
- pIC50 (LATS1): 7.11
- pEC50 [1]: < 4.70

SMILES: CC1(Nc2nc(-c3ccnc(F)c3F)nc3cnccc23)CC1 [Example 148, 2-(2,3-difluoropyridin-4-yl)-N-(1-methylcyclopropyl)pyrido[3,4-d]pyrimidin-4-amine]
- pIC50 (LATS1): 6.77
- pEC50 [1]: < 4.70

SMILES: CC(CO)(Nc1nc(-c2ccncc2)nc2cnccc12)C(F)(F)F (stereo not drawn) [Example 67, 3,3,3-trifluoro-2-methyl-2-{[2-(pyridin-4-yl)pyrido[3,4-d]pyrimidin-4-yl]amino}propan-1-ol]
- pIC50 (LATS1): 8.70
- pEC50 [1]: 6.16

SMILES: CC(C)(C)Nc1cc(-c2ccncc2Cl)nc2cnccc12 [Example 285, N-tert-butyl-2-(3-chloropyridin-4-yl)-1,7-naphthyridin-4-amine]
- pIC50 (LATS1): 6.72
- pEC50 [1]: < 4.70

SMILES: Cc1cccc(Nc2nc(-c3ccncc3)nc3cnccc23)c1 [Example 93, N-(3-methylphenyl)-2-(pyridin-4-yl)pyrido[3,4-d]pyrimidin-4-amine]
- pIC50 (LATS1): 6.09
- pEC50 [1]: < 4.70

SMILES: CC(C)(CC(=O)O)NC(=O)CC(C)(C)Nc1nc(-c2ccncc2)nc2cnccc12 [Example 37, 3-methyl-3-(3-methyl-3-{[2-(pyridin-4-yl)pyrido[3,4-d]pyrimidin-4-yl]amino}butanamido) butanoic acid]
- pIC50 (LATS1): 6.63
- pEC50 [1]: < 5.18

SMILES: OCC(CO)(CO)Nc1nc(-c2ccncc2)nc2cnccc12 [Example 36, 2-(hydroxymethyl)-2-{[2-(pyridin-4-yl)pyrido[3,4-d]pyrimidin-4-yl]amino}propane-1,3-diol]
- pIC50 (LATS1): 6.70
- pEC50 [1]: < 4.70

SMILES: COC(=O)CC1(Nc2nc(-c3ccncc3)nc3cnccc23)CC1 [Example 102, methyl 2-(1-{[2-(pyridin-4-yl)pyrido[3,4-d]pyrimidin-4-yl]amino}cyclopropyl)acetate]
- pIC50 (LATS1): 6.90

SMILES: OCC1(Nc2nc(-c3cn[nH]c3)nc3cnccc23)CCC1 [Example 191, (1-{[2-(1H-pyrazol-4-yl)pyrido[3,4-d]pyrimidin-4-yl]amino}cyclobutyl)methanol]
- pIC50 (LATS1): 6.72

SMILES: CC1(Nc2nc(-c3ccnc(C#N)c3)nc3cnccc23)CC1 [Example 151, 4-{4-[(1-methylcyclopropyl)amino]pyrido[3,4-d]pyrimidin-2-yl}pyridine-2-carbonitrile]
- pIC50 (LATS1): < 5.00

SMILES: CC(Nc1nc(-c2ccncc2)nc2cnccc12)c1ccccc1 (stereo not drawn) [Example 98, N-(1-phenylethyl)-2-(pyridin-4-yl)pyrido[3,4-d]pyrimidin-4-amine]
- pIC50 (LATS1): 5.87

SMILES: O=C(O)CCCNc1nc(-c2ccncc2)nc2cnccc12 [Example 97, 4-{[2-(pyridin-4-yl)pyrido[3,4-d]pyrimidin-4-yl]amino}butanoic acid]
- pEC50 [1]: < 4.70

SMILES: CC(C)(CN)Nc1nc(-c2cn[nH]c2)nc2cnccc12 [Example 197, N-(1-amino-2-methylpropan-2-yl)-2-(1H-pyrazol-4-yl)pyrido[3,4-d]pyrimidin-4-amine]
- pIC50 (LATS1): 7.64

SMILES: CCn1cc(-c2nc(NCC(C)C)c3ccncc3n2)cn1 [Example 195, 2-(1-ethyl-1H-pyrazol-4-yl)-N-(2-methylpropyl)pyrido[3,4-d]pyrimidin-4-amine]
- pIC50 (LATS1): < 5.00

SMILES: CC1(Nc2nc(-c3ccnc(C(F)(F)F)c3)nc3cnccc23)CC1 [Example 150, N-(1-methylcyclopropyl)-2-[2-(trifluoromethyl)pyridin-4-yl]pyrido[3,4-d]pyrimidin-4-amine]
- pIC50 (LATS1): 5.37

SMILES: CN(c1nc(-c2ccnn2C)nc2cnccc12)C1(C)CC1 [Example 169, N-methyl-2-(1-methyl-1H-pyrazol-5-yl)-N-(1-methylcyclopropyl)pyrido[3,4-d]pyrimidin-4-amine]
- pIC50 (LATS1): 7.01
